Measurements published in PMC6874683, “Pyrrothiogatain acts as an inhibitor of GATA family proteins and inhibits Th2 cell differentiation in vitro” (Scientific Reports, 2019).
“And” between values parts separate entries of the source, which are not always exact repeats. Equal entries are not always repeated.

Assays:
GATA4 = biological target: T1, GATA4 (Homo sapiens, UniProt P43694); test: AlphaScreen DNA-binding assay, GATA4; conditions: pyrrothiogatain 0 to 200 µM
T1 construct: we tried to synthesize their full-length proteins using the cell-free system; made in house; host or cells: wheat cell-free protein synthesis system (WEPRO1240 kit)
Protocol: (§1) For the protein-DNA binding assay on a 384-well AlphaPlate (Perkin Elmer), 10 μL of bait protein mixture containing 1 µL FLAG-tagged protein in AlphaScreen Buffer (100 mM Tris-HCl (pH 8.0), 150 mM NaCl, 0.1% Tween 20, and 1 mg/mL BSA) and 5 µL biotinylated oligonucleotide (0–10 µM final concentration) in AlphaScreen Buffer were dispended into the AlphaPlate. Then, the plate was incubated at 26 °C for 1 h. After incubation, 10 μL of the detection mixture containing 0.4 µg/mL Anti-DYKDDDDK antibody (1E6, Wako), 0.1 μL streptavidin-conjugated AlphaScreen donor beads, and 0.1 μL protein A-conjugated AlphaScreen acceptor beads in AlphaScreen Buffer was mixed and incubated at 26 °C for 1 h, and then, the AlphaScreen signal was detected using an EnVision device with the AlphaScreen signal detection program (PerkinElmer).
(§2) For the AlphaScreen-based chemical library screening, we used a diverse set of 9,600 synthesized chemicals established by the Drug Discovery Initiative (The University of Tokyo, Tokyo, Japan). All chemical compounds (10 mM) were dissolved in DMSO, and were pre-dispensed into a 384-well Alphaplate (250 nL/well). […] The AlphaScreen signal was detected using an EnVision device with the AlphaScreen signal detection program (PerkinElmer). […]

GATA3 = biological target: T2, GATA3 (Homo sapiens, UniProt P23771); test: AlphaScreen DNA-binding assay, GATA3 with GATA consensus DNA
T2 construct: we synthesized the recombinant full-length GATA3 protein with an N-terminal FLAG tag using the wheat cell-free system; made in house; host or cells: wheat cell-free protein synthesis system (WEPRO1240 kit)
Protocol: as §1, §2

Th2 cell differentiation = test: Intracellular cytokine staining, total CD4+ T cells under IL-2 conditions; type: cell-based, mouse; conditions: 30 µM, five days
Protocol: C57BL/6 mice were purchased from Clea (Clea Japan, Inc., Tokyo, Japan). Total CD4^+ T cells isolated from mouse spleen were prepared using a FITC anti-mouse CD4 antibody (Cat#100510, RM4–5, BioLegend) and anti-FITC-microbeads (Cat#130-097-050, Miltenyi Biotec). Naive CD4^+ T cells (CD44^low, CD62L^high) were prepared using a MojoSort Mouse CD4 T cell Isolation Kit (Cat#480033), BioLegend). Biotinylated anti-CD44 (Cat#103004, IM7) and anti-CD25 antibodies (Cat#102004, PC61) were purchased from BioLegend. CD4^+ T cells (7.5 × 10^5) were stimulated using immobilized anti-TCR-β mAb (3 µg/mL, H57–597, BioLegend) plus an anti-CD28 mAb (1.0 µg/mL, cat#40–0281, TONBO Biosciences) for 2 days, and then, the cells were further expanded under similar conditions for an additional 3 days. IL-2 conditions: IL-2 (10 ng/mL, Pepro Tech); Th2 conditions: IL-2 (10 ng/mL, Pepro Tech), IL-4 (1 ng/mL, Pepro Tech), and anti-IFN-γ mAb (2.5 µg/mL, cat#40–731, TONBO Biosciences). […]
The in vitro differentiated CD4^+ T cells were stimulated using an immobilized anti-TCR-β mAb (3 µg/ml, H57–597, BioLegend) for 6 h in the presence of monensin (2 µM). […] Flow cytometry was performed using a Gallios Flow Cytometer instrument (Beckman Coulter) and a FACS Caliber instrument (BD Biosciences) and the results were analysed using the FlowJo software program (Tree Star, Ashland, OR, USA). […]

T2 sequence (P23771 whole entry, species assumed): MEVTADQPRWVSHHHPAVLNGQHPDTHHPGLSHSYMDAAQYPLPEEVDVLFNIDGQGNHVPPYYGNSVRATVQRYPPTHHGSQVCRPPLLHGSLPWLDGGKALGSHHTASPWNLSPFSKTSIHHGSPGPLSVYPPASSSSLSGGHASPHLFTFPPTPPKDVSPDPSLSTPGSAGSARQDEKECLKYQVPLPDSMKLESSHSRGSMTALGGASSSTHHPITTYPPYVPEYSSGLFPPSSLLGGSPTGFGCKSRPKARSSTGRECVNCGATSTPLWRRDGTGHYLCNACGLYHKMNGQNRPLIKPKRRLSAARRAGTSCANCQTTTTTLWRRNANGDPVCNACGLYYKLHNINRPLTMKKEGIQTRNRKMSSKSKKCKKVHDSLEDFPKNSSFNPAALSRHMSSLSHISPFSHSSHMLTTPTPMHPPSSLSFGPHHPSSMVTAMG
T1 sequence (P43694 whole entry, species assumed): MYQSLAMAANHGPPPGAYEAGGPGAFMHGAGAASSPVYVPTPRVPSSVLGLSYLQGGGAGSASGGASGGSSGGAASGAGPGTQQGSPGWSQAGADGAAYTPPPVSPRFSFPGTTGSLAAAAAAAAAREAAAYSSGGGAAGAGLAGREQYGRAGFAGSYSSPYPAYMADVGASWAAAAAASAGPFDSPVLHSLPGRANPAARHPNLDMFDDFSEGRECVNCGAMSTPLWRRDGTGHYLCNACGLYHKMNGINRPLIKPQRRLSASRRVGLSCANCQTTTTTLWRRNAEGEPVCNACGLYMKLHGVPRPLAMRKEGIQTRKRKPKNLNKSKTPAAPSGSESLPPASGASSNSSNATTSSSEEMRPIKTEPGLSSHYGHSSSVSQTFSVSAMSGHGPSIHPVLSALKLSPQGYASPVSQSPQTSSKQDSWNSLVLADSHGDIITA

Cc1ccc(C)n1-c1ccsc1C(=O)O [Pyrrothiogatain, 3-(2,5-dimethyl-1H-pyrrol-1-yl)thiophene-2-carboxylic acid]
IC50 (GATA4): ~50 µM and 48 µM | IC50 (GATA3; AlphaScreen, pyrrothiogatain 0 to 200 µM): ~50 µM and 54.7 µM | Inhibition of GATA3–DNA binding in the second screen (GATA3; second screen, 0 to 10 µM): specifically inhibited | Generation of IL-4-, IL-5-, and IL-13-producing cells (Th2 cell differentiation): repressed | Number of Th1 cells producing IFN-γ (Th2 cell differentiation): increased
